The text below walks through data of US5593985A, “Cephalosporin compounds” (priority 1994, dated 1997).

SMILES strings stand for the structures. Converted amounts (≈) assume the structure as drawn. Read-outs that look alike come from different tables or passages of the source.

The subject of series [1] is Streptococcus pyogenes A 308. Description: MIC, standard strain 1. The class given is cell-based. As to conditions: A308, S. pyogenes A 308, two-fold dilution, Muller Hinton agar, 10^7 CFU/ml, 37° C., 18 hours, read-out: Minimal Inhibitory Concentration(MIC). The procedure:
(§1) In order to illustrate antibiotic effectiveness of the compounds of the present invention, the minimal inhibitory concentrations (MIC's) of the representative compounds were determined against standard strains and compared with ceftazidime and cefpirome, which were used as control compounds.
(§2) The MIC values were taken by employing a two-fold dilution method: that is, two-fold serial dilutions of each of the test compounds were made from initial concentration of […]; each 1.5 ml of them was dispersed in 13.5 ml of Muller Hinton agar medium to adjust to […]; the standard test strain which had the concentration of 10^7 CFU/ml was inoculated by medium;and these were incubated at 37° C. for 18 hours.
(§3) The test used twenty kinds of standard test strains which induced urinary tract infections, respiratory organ infections, skin soft tissue infections, plasma infections, gastrointestinal infections, central nervous system infections, most of which produce β-lactamase. The standard test strains used are as follows:
1. Streptococcus pyogenes A 308

The test system of series [2] is Staphylococcus aureus SG 511. In words: MIC, standard strain 4. The series is classed as cell-based. To be noted: read-out: Minimal Inhibitory Concentration(MIC). The procedure: as §1, §2, §3
4. Staphylococcus aureus SG 511

Series [3] concerns Staphylococcus aureus 503. Description: MIC, standard strain 6. As to conditions: Staphylococcus aureus; S. aureus 503; two-fold dilution, Muller Hinton agar, 10^7 CFU/ml, 37° C., 18 hours; read-out: Minimal Inhibitory Concentration(MIC). The class given is cell-based. The procedure:
as §1, §2, §3
6. Staphylococcus aureus 503

The subject of the next series is Escherichia coli DC 0. Description: MIC, standard strain 8. The series is classed as cell-based. To be noted: DC0, E. coli DC 0, two-fold dilution, Muller Hinton agar, 10^7 CFU/ml, 37° C., 18 hours, read-out: Minimal Inhibitory Concentration(MIC). The procedure:
as §1, §2
(§4) The test used twenty kinds of standard test strains which induced urinary tract infections, respiratory organ infections, skin soft tissue infections, plasma infections, gastrointestinal infections, central nervous system infections, most of which produce β-lactamase.

A further series deals with Escherichia coli DC 2. In words: MIC, standard strain 9. The series is classed as cell-based. To be noted: DC2, E. coli DC 2, two-fold dilution, Muller Hinton agar, 10^7 CFU/ml, 37° C., 18 hours, read-out: Minimal Inhibitory Concentration(MIC). The procedure: as §1, §2, §4
The next series relates to Escherichia coli TEM. In words: MIC, standard strain 10. The series is classed as cell-based. As to conditions: 18 h, read-out: Minimal Inhibitory Concentration(MIC). The procedure: as §1, §2, §4
Series [4] concerns Pseudomonas aeruginosa 9.027. Description: MIC, standard strain 12. The class given is cell-based. To be noted: Pseudomonas aeruginosa; P. aeruginosa 9.027; two-fold dilution, Muller Hinton agar, 10^7 CFU/ml, 37° C., 18 hours; read-out: Minimal Inhibitory Concentration(MIC). The procedure:
as §1, §2, §3
12. Pseudomonas aeruginosa 9.027

In series [5] the test system is Pseudomonas aeruginosa 1592 E. In words: MIC, standard strain 13. As to conditions: P. aeruginosa 1592 E, two-fold dilution, Muller Hinton agar, 10^7 CFU/ml, 37° C., 18 hours, read-out: Minimal Inhibitory Concentration(MIC). The class given is cell-based. The procedure: as §1, §2, §3
13. Pseudomonas aeruginosa 1592 E

For series [6], the system named is Pseudomonas aeruginosa 1771. In words: MIC, standard strain 14. The class given is cell-based. As to conditions: Pseudomonas aeruginosa; P. aeruginosa 1771; two-fold dilution, Muller Hinton agar, 10^7 CFU/ml, 37° C., 18 hours; read-out: Minimal Inhibitory Concentration(MIC). The procedure:
as §1, §2, §3
14. Pseudomonas aeruginosa 1771

The next series deals with Salmonella typhimurium. Description: MIC, standard strain 16. To be noted: Salmonella enterica; S. typhimurium; two-fold dilution, Muller Hinton agar, 10^7 CFU/ml, 37° C., 18 hours; read-out: Minimal Inhibitory Concentration(MIC). The series is classed as cell-based. The procedure:
as §1, §2, §3
16. Salmonella typhimurium

Series [7] relates to Klebsiella aerogenes 1552 E. In words: MIC, standard strain 18. The class given is cell-based. As to conditions: K. aerogenes 1552 E, two-fold dilution, Muller Hinton agar, 10^7 CFU/ml, 37° C., 18 hours, read-out: Minimal Inhibitory Concentration(MIC). The procedure:
as §1, §2, §3
18. Klebsiella aerogenes 1552 E

Series [8] concerns Enterobacter cloacae P 99. Description: MIC, standard strain 19. The series is classed as cell-based. To be noted: P99, 18 h, read-out: Minimal Inhibitory Concentration(MIC). The procedure:
as §1, §2, §3
19. Enterobacter cloacae P 99

The test system of the next series is MRSA(Yonsei Univ.). In words: MIC, clinically separated strains. The class given is cell-based. On the set-up: range of MIC: unit not given here. The procedure: as §2
Another series has as its system Streptococcus I. Description: MIC, clinically separated strains. To be noted: 20 clinical strains; for MIC50 / MIC90: Streptococcus, 18 h. The series is classed as cell-based. Further details: range of MIC: unit not given here. The procedure:
as §2

For series [9], the system named is Streptococcus pyogens A77. Description: antibiotic activity against systemic infection in mice. The series is classed as in vivo. To be noted: A77, im, bacteria intraperitoneally, intramuscular injection, 5 to 0.078 mg/kg, probit method (confidence limit), read-out: PD50. The procedure:
In order to illustrate clinical effectiveness of the compounds of the present invention more specifically, the stability to β-lactamase and antibiotic activity against systemic infection, were tested, and the results are shown in Table 4 and 5, respectively.
Antibiotic activity against systematic infection was tested by using mice: that is, 0.3 ml of a strain solution containing fatal dose of bacteria in 0.3 ml was administered to mice intraperitoneally; and then, the test antibiotics were administered intramuscularly in an amount of 5 to 0.078 mg/kg. PD50 was calculated by probit method.

The nature of a further series: acute toxicity test. To be noted: in vivo, iv.
The subject of a further series is Pseudomonas. As to conditions: compared with DQ-2556 or ceftazidime; cited from earlier work.
The test system of series [10] is Gram-negative and Gram-positive bacteria. To be noted: cited from earlier work.
The mark [11] stands for this setting: Staphylococcus aureus, MRSA, 18 h, 17 clinical strains.

`CO/N=C(\C(=O)N[C@@H]1C(=O)N2C(C(=O)[O-])=C(C[n+]3ccc(C(N)=O)c4c3CCC4)CS[C@H]12)c1csc(N)n1` [Example 3]: the MIC in series [1] worked out at 0.7 µg/mL (≈ 1.26 µM); in series [2] (SG511, 18 h), 391 µg/mL (≈ 701 µM); in series [3] it was 391 µg/mL (≈ 701 µM); in the series with Escherichia coli DC 0 it was 25 µg/mL (≈ 44.8 µM); with Escherichia coli DC 2, 25 µg/mL (≈ 44.8 µM); in the series on Escherichia coli TEM, 49 µg/mL (≈ 87.9 µM). For the same compound, the MIC was 1560 µg/mL (≈ 2800 µM) in series [4]; 1560 µg/mL (≈ 2800 µM) in series [5]; 391 µg/mL (≈ 701 µM) in series [6]; 25 µg/mL (≈ 44.8 µM) with Salmonella typhimurium; 25 µg/mL (≈ 44.8 µM) in [7]; 3120 µg/mL (≈ 5600 µM) in [8]. Further, the “antibiotic activities against MRSA(Yonsei Univ.), in words” value in the series with MRSA(Yonsei Univ.) is “unexpectedly potent antibiotic activities”. In addition, the “range of MIC” value in the series on MRSA(Yonsei Univ.) (17 clinical strains) was 0.013-100.000; in the series with Streptococcus I it was 0.007-25.000. Moreover, the figures for the MIC50 against MRSA(Yonsei Univ.) (setting [11]) and with Streptococcus I were 12.5 µg/mL (≈ 22.4 µM) and 0.025 µg/mL (≈ 0.0448 µM), respectively. Further, the results for the MIC90 against MRSA(Yonsei Univ.) (setting [11]) and against Streptococcus I were 100 µg/mL (≈ 179 µM) and 12.5 µg/mL (≈ 22.4 µM), respectively. In addition, the ED50 in series [9] was 0.29 mg/kg. The compound further showed an LD50 in “acute toxicity test” above 3000 mg/kg.
For the compound `CO/N=C(\C(=O)N[C@@H]1C(=O)N2C(C(=O)[O-])=C(C[n+]3cccc4c3CCC4)CS[C@H]12)c1csc(N)n1` [cefpirome, reference compound], the MIC in series [1] amounted to 4 µg/mL (≈ 7.77 µM); in [2] (SG511, S. aureus SG 511, two-fold dilution, Muller Hinton agar, 10^7 CFU/ml, 37° C., 18 hours), 391 µg/mL (≈ 760 µM); in series [3], 13 µg/mL (≈ 25.3 µM); in the series with Escherichia coli DC 0, 49 µg/mL (≈ 95.2 µM); with Escherichia coli DC 2, 49 µg/mL (≈ 95.2 µM); in the series on Escherichia coli TEM, 49 µg/mL (≈ 95.2 µM). Moreover, the MIC in series [4] worked out at 3120 µg/mL (≈ 6070 µM); in [5], 1560 µg/mL (≈ 3040 µM); in [6] it was 391 µg/mL (≈ 760 µM); with Salmonella typhimurium it was 25 µg/mL (≈ 48.6 µM); in series [7], 25 µg/mL (≈ 48.6 µM); in [8] it was 3120 µg/mL (≈ 6070 µM). Besides, the MIC in the series on MRSA(Yonsei Univ.) (Staphylococcus aureus, MRSA, 18 h, read-out: range of MIC, 17 clinical strains) is 100 µg/mL (≈ 194 µM). Also, the “antibiotic activities against MRSA(Yonsei Univ.), in words” value in the series on MRSA(Yonsei Univ.) is given as “shows resistance to cefpirome”. Further, the results for the MIC50 with MRSA(Yonsei Univ.) (setting [11]) and against Streptococcus I were 100 µg/mL (≈ 194 µM) and 0.025 µg/mL (≈ 0.0486 µM), respectively. The MIC90 is 100 µg/mL (≈ 194 µM) against MRSA(Yonsei Univ.) (setting [11]) and 12.5 µg/mL (≈ 24.3 µM) against Streptococcus I. Besides, the “activity against Pseudomonas, in words” value in the series on Pseudomonas was “inferior to ceftazidime”. Also, the “activity against Gram-negative and Gram-positive bacteria, in words” value in series [10] was “improved activity against Gram-negative and Gram-positive bacteria”.
